# Molecular target: T1, VLA-4 (Homo sapiens, UniProt P05556+P13612)
# T1 construct: host or cells: Jurkat clone E6-1
# Test: Adhesion of Jurkat cells to immobilized VCAM-1 (domains 1-3)
# Format: cell-based
# Parameters: scale not given here
# Details: adhesion of CFSE-labeled Jurkat cells to recombinant human VCAM-1 (domains 1-3) coated plates; compounds as yielded by solid phase synthesis, purity about 40-90%
# Experimental: In Vitro Assay: Adhesion of Jurkat Cells to Immobilized VCAM-1 (Domains 1-3).
# Preparation of Fluorescence Labeled Jurkat Cells:
# Jurkat cells (American Type Culture Collection, Clone E6-1, ATCC TIB-152) were cultured in RPMI 1640 medium (Nikken Bio Medical Laboratory, CM1101) supplemented with 10% fetal bovine serum (Hyclone, A-1119-L), 100 U/ml penicilin (Gibco BRL, 15140-122) and 100 μg/ml streptomycin (Gibco BRL, 15140-122) in a humidified incubator at 37° C. with 5% CO2.
# Jurkat cells were incubated with phosphate balanced solution (PBS, Nissui, 05913) containing 25 μM of 5(-and-6)-carboxyfluorescein diacetate, succinimidyle ester (CFSE, Dojindo Laboratories, 345-06441) for 20 min at room temperature while gently swirling every 5 min. After centrifugation at 1000 rpm for 5 min, the cell pellet was resuspended with adhesion assay buffer at a cell density of 2×10^6 cells/ml. The adhesion assay buffer was composed of 24 mM Tris-HCl (pH 7.4), 137 mM NaCl, 27 mM KCl, 4 mM glucose, 0.1% bovine serum albumin (BSA, Sigma, A9647) and 2 mM MnCl2.
# Preparation of VCAM-1 (Extracellular Domains 1-3):
# Complementary DNA (cDNA) encoding 7-domain form of VCAM-1 (GenBank accession #M60335) was obtained using Rapid-Screen™ cDNA library panels (OriGene Technologies, Inc) at Takara Gene Analysis Center (Shiga, Japan). The primers used were 5′-CCAAGGCAGAGTACGCAAAC-3′ (sence) and 5′-TGGCAGGTATTATTAAGGAG-3′ (antisense). PCR amplification of the 3-domain VCAM-1 cDNA was perform using Pfu DNA polymerase (Stratagene) with the following sets of primers: (U-VCAMd1-3) 5′-CCATATGGTACCTGATCAATTTAAAATCGAGACCACCCCAGAA-3′; (L-VCAMd1-3) 5′-CCATATAGCAATCCTAGGTCCAGGGGAGATCTCAACAGTAAA-3′. PCR cycle was 94° C. for 45 sec, 55° C. for 45 sec, 72° C. for 2 min, repeating 15 cycles. After the purification of the PCR product, the fragment was digested with KpnI-AvrII. The digested fragment was ligated into pBluescript IISK(−) (Strategene), which was linealized by digesting with KpnI-XhoI. The ligation was followed by transformation to a Dam/Dcm methylase-free E. coli strain SCS110 (Strategene) to create the donor plasmid pH7. To direct VCAM-1 molecule into the insect cell secretory pathway, the VCAM-1 coding sequence was fused to signal peptide sequence of honeybee melittin. The resulting melittin-VCAM fusion was placed in correct orientation to the baculoviris polyhedrin promoter. Baculovirus transfer vector containing first 3-domain form VCAM-1 (pH10) was constructed by ligation of 0.9 kb fragment from AvrII/Klenow/BclI digests of pH7 into SalI/Klenow/BamHI digests of pMelBacB (Invitrogen). Recombinant baculovirus was generated by using Bac-N-Blue™ Transfection kit (Invitrogen) according to the manufacture's instruction. The recombinant virus was amplified by infection to High-Five™ insect cells for 5-6 days, and virus titer was determined by plaque assay.
# High-Five™ insect cells were pelleted in a 225 ml conical tube by centrifugation at 1000 rpm for 5 min After discarding the supernatant, the pellet was resuspended in 1.5×10^9 pfu (MOI=5) of high-titer virus solution, followed by incubation for 1.5 hours at room temperature. The cells were pelleted again and washed once in fresh Express Five™ serum free medium. The cells were pelleted again and finally, resuspended in 200 ml of fresh Express Five™ medium, transferred to a 1,000 ml shaker flask, and incubated in a shaker at 27° C., 130 rpm, for 48 hours before the culture supernatant was collected. The purification of 3-domain form of VCAM-1 from the culture supernatant was performed by one-step anion exchange chromatography. Protein concentration was determined by using Coomassie protein assay reagent (Pierce) according to the manufacture's instruction.
# Preparation of Microtiter Plates:
# Recombinant human VCAM-1 (extracellular domains 1-3) was dissolved at 0.5 μg/ml in PBS. […]
# T1 sequence (P13612 34-1032): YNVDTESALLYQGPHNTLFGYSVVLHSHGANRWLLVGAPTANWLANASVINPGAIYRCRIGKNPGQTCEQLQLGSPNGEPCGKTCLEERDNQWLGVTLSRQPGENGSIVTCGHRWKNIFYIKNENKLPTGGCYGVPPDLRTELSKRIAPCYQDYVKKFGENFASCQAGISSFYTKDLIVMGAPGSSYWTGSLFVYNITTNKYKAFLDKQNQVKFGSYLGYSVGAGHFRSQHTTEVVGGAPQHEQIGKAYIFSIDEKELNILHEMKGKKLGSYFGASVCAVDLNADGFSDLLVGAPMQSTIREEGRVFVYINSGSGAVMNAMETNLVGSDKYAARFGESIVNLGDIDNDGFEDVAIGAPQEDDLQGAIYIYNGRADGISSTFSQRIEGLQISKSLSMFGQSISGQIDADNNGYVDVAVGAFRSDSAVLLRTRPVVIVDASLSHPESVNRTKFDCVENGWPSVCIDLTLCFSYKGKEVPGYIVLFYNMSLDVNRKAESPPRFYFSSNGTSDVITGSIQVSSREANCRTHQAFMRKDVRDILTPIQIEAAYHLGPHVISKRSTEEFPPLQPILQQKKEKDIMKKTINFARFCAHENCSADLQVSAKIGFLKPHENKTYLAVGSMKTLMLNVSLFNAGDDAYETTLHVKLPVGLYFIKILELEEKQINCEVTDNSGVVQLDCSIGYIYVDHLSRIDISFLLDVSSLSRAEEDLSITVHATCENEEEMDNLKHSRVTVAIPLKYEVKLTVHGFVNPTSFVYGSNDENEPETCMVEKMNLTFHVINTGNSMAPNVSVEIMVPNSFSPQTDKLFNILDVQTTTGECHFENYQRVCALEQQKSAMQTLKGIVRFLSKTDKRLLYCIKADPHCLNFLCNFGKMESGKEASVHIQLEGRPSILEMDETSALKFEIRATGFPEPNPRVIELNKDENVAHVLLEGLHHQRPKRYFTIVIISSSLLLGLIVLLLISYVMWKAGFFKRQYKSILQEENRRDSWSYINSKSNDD
# T1 sequence (P05556 21-798): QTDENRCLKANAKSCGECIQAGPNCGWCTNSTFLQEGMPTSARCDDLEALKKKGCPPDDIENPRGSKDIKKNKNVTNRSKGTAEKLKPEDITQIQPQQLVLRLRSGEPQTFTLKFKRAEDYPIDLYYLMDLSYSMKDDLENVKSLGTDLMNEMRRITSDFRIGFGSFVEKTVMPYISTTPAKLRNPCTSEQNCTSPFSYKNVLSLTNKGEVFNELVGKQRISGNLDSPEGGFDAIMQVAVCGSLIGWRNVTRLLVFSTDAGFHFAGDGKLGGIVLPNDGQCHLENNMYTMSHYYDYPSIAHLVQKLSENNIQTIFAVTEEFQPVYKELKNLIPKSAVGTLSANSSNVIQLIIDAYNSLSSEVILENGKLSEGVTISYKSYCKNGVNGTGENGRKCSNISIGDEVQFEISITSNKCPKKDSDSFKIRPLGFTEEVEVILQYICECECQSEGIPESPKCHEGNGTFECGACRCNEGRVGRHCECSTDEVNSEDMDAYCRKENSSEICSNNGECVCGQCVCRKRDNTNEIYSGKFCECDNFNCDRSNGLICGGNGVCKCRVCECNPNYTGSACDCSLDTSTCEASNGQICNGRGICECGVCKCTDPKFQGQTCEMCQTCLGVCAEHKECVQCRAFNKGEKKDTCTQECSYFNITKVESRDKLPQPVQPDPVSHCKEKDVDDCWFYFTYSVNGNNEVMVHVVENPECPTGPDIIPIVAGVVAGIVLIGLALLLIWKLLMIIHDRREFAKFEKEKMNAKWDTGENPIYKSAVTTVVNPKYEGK
row,IC50,SMILES
1,C-D,Cc1ccc(-c2ccc(C[C@H](NC(=O)C3CCCN(c4ncnc(NC5CCCCC5)c4F)C3)C(=O)O)cc2)cc1 (some centres unmarked) [Example 2.5]
2,C-D,Cc1ccc(-c2ccc(C[C@H](NC(=O)C3CCCN(c4ncnc(N5CCCCC5)c4F)C3)C(=O)O)cc2)cc1 (some centres unmarked) [Example 2.6]
3,C-D,Cc1ccc(-c2ccc(C[C@H](NC(=O)C3CCCN(c4ncnc(N5CCOCC5)c4F)C3)C(=O)O)cc2)cc1 (some centres unmarked) [Example 2.7]
4,C-D,Cc1ccc(-c2ccc(C[C@H](NC(=O)C3CCCN(c4ncnc(N(C)Cc5ccccc5)c4F)C3)C(=O)O)cc2)cc1 (some centres unmarked) [Example 2.8]
5,B-C,Cc1ccc(-c2ccc(C[C@H](NC(=O)C3CCCN(c4ncnc(N5CCNCC5)c4F)C3)C(=O)O)cc2)cc1 (some centres unmarked) [Example 2.9]
6,C-D,CCCNc1ncnc(N2CCCC(C(=O)N[C@@H](Cc3ccc(-c4ccc(C)cc4)cc3)C(=O)O)C2)c1F (some centres unmarked) [Example 2.10]
7,C-D,Cc1ccc(-c2ccc(C[C@H](NC(=O)C3CCCN(c4ncnc(NC5Cc6ccccc6C5)c4F)C3)C(=O)O)cc2)cc1 (some centres unmarked) [Example 2.11]
8,C-D,Cc1ccc(-c2ccc(C[C@H](NC(=O)C3CCCN(c4ncnc(NCCN5CCCC5)c4F)C3)C(=O)O)cc2)cc1 (some centres unmarked) [Example 2.12]
9,C-D,CCCCN(C)c1ncnc(N2CCCC(C(=O)N[C@@H](Cc3ccc(-c4ccc(C)cc4)cc3)C(=O)O)C2)c1F (some centres unmarked) [Example 2.13]
10,C-D,COc1ccc(-c2ccc(C[C@H](NC(=O)C3CCCN(c4ncnc(NCc5ccccn5)c4F)C3)C(=O)O)cc2)cc1 (some centres unmarked) [Example 2.14]
11,C-D,COc1ccc(-c2ccc(C[C@H](NC(=O)C3CCCN(c4ncnc(NC5CCCCC5)c4F)C3)C(=O)O)cc2)cc1 (some centres unmarked) [Example 2.15]

# Further lines, the compound ahead of its results:
row,SMILES,IC50
1,Cc1ccccc1-c1ccc(C[C@H](NC(=O)C2CCCN(S(=O)(=O)c3ccccc3C(F)(F)F)C2)C(=O)O)cc1 (some centres unmarked) [Example 1.89],C-D
2,COc1ccc(Cl)cc1S(=O)(=O)N1CCCC(C(=O)N[C@@H](Cc2ccc(-c3ccccc3C)cc2)C(=O)O)C1 (some centres unmarked) [Example 1.90],C-D
3,Cc1ccccc1-c1ccc(C[C@H](NC(=O)C2CCCN(S(=O)(=O)Cc3ccccc3)C2)C(=O)O)cc1 (some centres unmarked) [Example 1.91],C-D
4,Cc1ccccc1-c1ccc(C[C@H](NC(=O)C2CCCN(S(=O)(=O)c3cc(Cl)cc(Cl)c3)C2)C(=O)O)cc1 (some centres unmarked) [Example 1.92],C-D
5,CC1(C)C2CCC1(CS(=O)(=O)N1CCCC(C(=O)N[C@@H](Cc3ccc(-c4ccc(Cl)cc4Cl)cc3)C(=O)O)C1)C(=O)C2 (some centres unmarked) [Example 1.93],C-D
6,Cc1ccc(S(=O)(=O)N2CCCC(C(=O)N[C@@H](Cc3ccc(-c4ccc(Cl)cc4Cl)cc3)C(=O)O)C2)cc1 (some centres unmarked) [Example 1.94],C-D
7,COC(=O)c1ccccc1S(=O)(=O)N1CCCC(C(=O)N[C@@H](Cc2ccc(-c3ccc(Cl)cc3Cl)cc2)C(=O)O)C1 (some centres unmarked) [Example 1.95],C-D
8,O=C(N[C@@H](Cc1ccc(-c2ccc(Cl)cc2Cl)cc1)C(=O)O)C1CCCN(S(=O)(=O)c2ccc3ccccc3c2)C1 (some centres unmarked) [Example 1.96],C-D
9,O=C(N[C@@H](Cc1ccc(-c2ccc(Cl)cc2Cl)cc1)C(=O)O)C1CCCN(S(=O)(=O)c2ccccc2C(F)(F)F)C1 (some centres unmarked) [Example 1.99],C-D
10,COc1ccc(Cl)cc1S(=O)(=O)N1CCCC(C(=O)N[C@@H](Cc2ccc(-c3ccc(Cl)cc3Cl)cc2)C(=O)O)C1 (some centres unmarked) [Example 1.100],C-D
11,O=C(N[C@@H](Cc1ccc(-c2ccc(Cl)cc2Cl)cc1)C(=O)O)C1CCCN(S(=O)(=O)Cc2ccccc2)C1 (some centres unmarked) [Example 1.101],C-D
12,O=C(N[C@@H](Cc1ccc(-c2ccc(Cl)cc2Cl)cc1)C(=O)O)C1CCCN(S(=O)(=O)c2cc(Cl)cc(Cl)c2)C1 (some centres unmarked) [Example 1.102],C-D
13,CC1(C)C2CCC1(CS(=O)(=O)N1CCCC(C(=O)N[C@@H](Cc3ccc(-c4cc(Cl)ccc4Cl)cc3)C(=O)O)C1)C(=O)C2 (some centres unmarked) [Example 1.103],C-D
14,COC(=O)c1ccccc1S(=O)(=O)N1CCCC(C(=O)N[C@@H](Cc2ccc(-c3cc(Cl)ccc3Cl)cc2)C(=O)O)C1 (some centres unmarked) [Example 1.105],C-D
15,O=C(N[C@@H](Cc1ccc(-c2cc(Cl)ccc2Cl)cc1)C(=O)O)C1CCCN(S(=O)(=O)c2ccc3ccccc3c2)C1 (some centres unmarked) [Example 1.106],C-D
16,O=C(N[C@@H](Cc1ccc(-c2cc(Cl)ccc2Cl)cc1)C(=O)O)C1CCCN(S(=O)(=O)c2c(Cl)cccc2Cl)C1 (some centres unmarked) [Example 1.107],C-D
17,COc1ccc(S(=O)(=O)N2CCCC(C(=O)N[C@@H](Cc3ccc(-c4cc(Cl)ccc4Cl)cc3)C(=O)O)C2)cc1OC (some centres unmarked) [Example 1.108],C-D
18,O=C(N[C@@H](Cc1ccc(-c2cc(Cl)ccc2Cl)cc1)C(=O)O)C1CCCN(S(=O)(=O)c2ccccc2C(F)(F)F)C1 (some centres unmarked) [Example 1.109],C-D
19,COc1ccc(Cl)cc1S(=O)(=O)N1CCCC(C(=O)N[C@@H](Cc2ccc(-c3cc(Cl)ccc3Cl)cc2)C(=O)O)C1 (some centres unmarked) [Example 1.110],C-D
20,O=C(N[C@@H](Cc1ccc(-c2cc(Cl)ccc2Cl)cc1)C(=O)O)C1CCCN(S(=O)(=O)c2cc(Cl)cc(Cl)c2)C1 (some centres unmarked) [Example 1.111],C-D

# Same assay, conditions: adhesion of CFSE-labeled Jurkat cells to recombinant human VCAM-1 (domains 1-3) coated plates; compounds as yielded by solid phase synthesis, purity about 40-90%; read-out: IC50
row,IC50 [µM],SMILES
1,≤ 0.5,O=C(N[C@@H](Cc1ccc(-c2cc(Cl)ccc2Cl)cc1)C(=O)O)C1CCCN(c2ncnc(NCc3ccccn3)c2F)C1 (some centres unmarked) [Example 2.1]
2,≤ 0.5,"O=C(N[C@@H](Cc1ccc(-c2cc(Cl)ccc2Cl)cc1)C(=O)O)C1CCCN(c2ncnc(N3CCNCC3)c2F)C1 (stereo partly drawn) [Example 2.2, (2S)-3-(2′,5′-dichloro[1,1′-biphenyl]-4-yl)-2-[({1-[5-fluoro-6-(1-piperazinyl)-4-pyrimidinyl]-3-piperidinyl}carbonyl)amino]propanoic acid]"
3,≤ 0.5,"O=C(N[C@@H](Cc1ccc(-c2cc(Cl)ccc2Cl)cc1)C(=O)O)C1CCCN(c2ncnc(N3CCOCC3)c2F)C1 (stereo partly drawn) [Example 2.3, (2S)-3-(2′,5′-dichloro[1,1′-biphenyl]-4-yl)-2-[({1-[5-fluoro-6-(4-morpholinyl)-4-pyrimidinyl]-3-piperidinyl}carbonyl)amino]propanoic acid]"
4,2 to 10,Cc1ccc(-c2ccc(C[C@H](NC(=O)C3CCCN(c4ncnc(NCc5ccccn5)c4F)C3)C(=O)O)cc2)cc1 (some centres unmarked) [Example 2.4]

# Second part, the compound before the results:
row,SMILES,IC50 [µM]
1,COC(=O)c1ccccc1S(=O)(=O)N1CCCC(C(=O)N[C@@H](Cc2ccc(-c3ccccc3C)cc2)C(=O)O)C1 (some centres unmarked) [Example 1.86],2 to 10
2,Cc1ccccc1-c1ccc(C[C@H](NC(=O)C2CCCN(S(=O)(=O)c3ccc4ccccc4c3)C2)C(=O)O)cc1 (some centres unmarked) [Example 1.87],0.5 to 2
3,COc1ccc(S(=O)(=O)N2CCCC(C(=O)N[C@@H](Cc3ccc(-c4ccccc4C)cc3)C(=O)O)C2)cc1OC (some centres unmarked) [Example 1.88],2 to 10
4,O=C(N[C@@H](Cc1ccc(-c2ccc(Cl)cc2Cl)cc1)C(=O)O)C1CCCN(S(=O)(=O)c2c(Cl)cccc2Cl)C1 (some centres unmarked) [Example 1.97],2 to 10
5,COc1ccc(S(=O)(=O)N2CCCC(C(=O)N[C@@H](Cc3ccc(-c4ccc(Cl)cc4Cl)cc3)C(=O)O)C2)cc1OC (some centres unmarked) [Example 1.98],2 to 10
6,Cc1ccc(S(=O)(=O)N2CCCC(C(=O)N[C@@H](Cc3ccc(-c4cc(Cl)ccc4Cl)cc3)C(=O)O)C2)cc1 (some centres unmarked) [Example 1.104],≤ 0.5

# Reference: US6794386B2, “β-amino acid compounds as integrin antagonists” (Bayer Aktiengesellschaft, priority 2000, dated 2004)
